Assay results reported in PubChem BioAssay AID1774 (Sanford-Burnham Center for Chemical Genomics, 2009).
Active and inactive are the calls of the source. The rule behind the calls is not given here.

Tested on: MDA-MB-435 cytotoxicity with apoptosis inducers, ATPlite, 24 h
Test: PubChem AID 1774
Details: stronger effect = higher value

CSc1nc(-c2ccc(C)cc2)nc(C(Cl)Cl)n1
cytotoxicity (at 5 µM): -11% (inactive)
cytotoxicity (compound alone 2.5 uM, at 2.5 µM): -19%
cytotoxicity (plus doxorubicin 50 ug/mL, at 5 µM): 30%
cytotoxicity (plus doxorubicin 100 ug/mL, at 5 µM): 75%
cytotoxicity (plus etoposide 50 uM, at 5 µM): 18%
cytotoxicity (plus etoposide 100 uM, at 5 µM): 14%
cytotoxicity (plus thapsigargin 3 uM, at 5 µM): 17%
cytotoxicity (plus thapsigargin 10 uM, at 5 µM): -7%
cytotoxicity (plus tunicamycin 10 ug/mL, at 5 µM): 10%
cytotoxicity (plus tunicamycin 30 ug/mL, at 5 µM): 16%
